# Measurements as given in publication PMC4736845, “Structural comparison between the open and closed forms of citrate synthase from Thermus thermophilus HB8” (Biophysics and Physicobiology, 2015).
# Molecular target: T1, TtCS (citrate synthase from Thermus thermophilus HB8) (Thermus thermophilus, UniProt Q5SIM6)
# T1 construct: gene TTHA1343; recombinant, E. coli BL21(DE3) pET-3a; no tag stated; 377 residues, Mr 42,304 per subunit; homodimer
# T1 sequence (Q5SIM6 1-377): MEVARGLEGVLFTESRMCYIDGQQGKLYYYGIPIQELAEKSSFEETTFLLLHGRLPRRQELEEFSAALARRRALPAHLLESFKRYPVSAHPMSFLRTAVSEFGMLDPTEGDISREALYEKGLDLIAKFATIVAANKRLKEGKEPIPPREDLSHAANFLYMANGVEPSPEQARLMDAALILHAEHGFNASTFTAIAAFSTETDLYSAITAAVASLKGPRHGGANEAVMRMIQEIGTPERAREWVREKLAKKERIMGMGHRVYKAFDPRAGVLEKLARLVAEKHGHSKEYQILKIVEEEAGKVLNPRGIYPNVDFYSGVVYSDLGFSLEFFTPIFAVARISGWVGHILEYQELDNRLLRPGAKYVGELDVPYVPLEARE
# Assay: X-ray crystal structure, […] Å, co-crystallised
# Format: binding
# Conditions: closed forms (fully and partially closed)
Structure (SMILES),"X-ray crystal structure, 2.3 Å, co-crystallised (ternary complex with citrate, same crystallisation, active site just above citrate)","X-ray crystal structure, 2.3 Å, co-crystallised (ternary complex with CoA, 10 mM Na-citrate, 10 mM CoA, 100 mM KCl, then 1.5 M lithium sulfate, 100 mM Na-citrate pH 5.8, 20°C, active site)"
CC(C)(COP(=O)(O)OP(=O)(O)OC[C@H]1O[C@@H](n2cnc3c(N)ncnc32)[C@H](O)[C@@H]1OP(=O)(O)O)[C@@H](O)C(=O)NCCC(=O)NCCS [CoA],CoA is bound at the upper part of the active site just above the citrate-binding site,
O=C(O)CC(O)(CC(=O)O)C(=O)O [citrate],,Citrate is bound deep in the cleft of the active site by hydrogen bonds
